Experimental findings from US7763751B2 (priority 2003, dated 2010) are described below.

Where two headings read alike, the source gives them in different places.

Test [1] deals with T1, α-synuclein (Homo sapiens, UniProt P37840).
T1 construct: The synthetic peptide NAC (Bachem) was dissolved at 1 mg/ml; purchased Bachem; host or cells: chemical synthesis
Put plainly: Inhibition of NAC (α-synuclein) spontaneous aggregation (HPLC assay). In kind it is biochemical. To be noted: for potency in inhibiting the aggregation of α-synuclein as compared to compound (3): comparison with known compound (3); for anti-aggregating properties against α-synuclein: in words. Here is the method: (§1) In our experimental conditions, the peptide monomer (anti-aggregation protocol) or already aggregated (disaggregation protocol) was incubated at 37° C., alone or in the presence of the test compound, for different time intervals, then centrifuged and both the supernatant and the pellet were analyzed by HPLC or Thioflavine T binding assay.
Inhibition of Non Aβ Component of Alzheimer's Disease Amyloid (NAC, α-synuclein) Spontaneous Aggregation
Preparation of the NAC peptide
The synthetic peptide NAC (Bachem) was dissolved at 1 mg/ml in H2O/CH3CN 1:1 plus 5% TFA. Aliquots of 40 μg were lyophilized under vacuum for 18 h and stored at −80° C.
NAC spontaneous aggregation
40 μg of lyophilized peptide sample was dissolved at 500 μM in 20 mM potassium phosphate buffer, pH 7.4, containing 150 mM NaCl. The sample was incubated for 24 h at 37° C. After centrifugation at 13000 xg for 5 min, the pellet was dissolved in formic acid and both pellet and supernatant were analyzed by HPLC. The extent of aggregation was determined as the percentage of peptide content in the pellet compared to the total amount used.

Test [2] concerns the target T2, β-Amyloid1-42 (Homo sapiens, UniProt P05067).
T2 construct: Synthetic Aβ 1-42 (U.S. Peptide, Rancho Cucamonga, USA); purchased U.S. Peptide, Rancho Cucamonga, USA; host or cells: chemical synthesis
Briefly: Inhibition of Aβ 1-42 spontaneous aggregation (HPLC assay). In kind it is biochemical. As to conditions: for IC50: concentration able to inhibit the aggregation of the fibrils by 50%, peptide 20 μM, pH 7.4, 18 h at 37° C., read-out: β-Amyloid1-42 Anti-aggregation (HPLC assay) IC50; for potency in inhibiting the aggregation of Aβ1-42 as compared to compound (3): comparison with known compound (3); for anti-aggregating properties against Aβ1-42: in words. Here is the method: as §1
Inhibition of Aβ 1-42 Spontaneous Aggregation
Preparation of the Aβ 1-42 peptide
Synthetic Aβ 1-42 (U.S. Peptide, Rancho Cucamonga, USA) was dissolved to 220 μM in H2O/CH3CN 1:1. Aliquots of 10 μg were lyophilized under vacuum with an Eppendorf concentrator for 18 h and stored at −80° C.
Aβ 1-42 spontaneous aggregation
10 μg of lyophilized peptide sample was dissolved at 20 μM in 20 mM potassium phosphate buffer, pH 7.4, containing 150 mM NaCl. The sample was incubated for 18 h at 37° C. After centrifugation at 13000 xg for 5 min, the pellet was dissolved in formic acid and both the pellet and the supernatant were analysed by HPLC. The extent of aggregation was determined as the percentage of peptide content in the pellet compared with the total amount.

T2 sequence (P05067 672-713 limits assumed): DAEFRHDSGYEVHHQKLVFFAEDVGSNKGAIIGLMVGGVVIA

For orientation: IC50 means the concentration at which inhibition is half-maximal. For `CCCN(CCC)[C@@H]1Cc2c(O)ccc(O)c2C[C@H]1C` (relative stereo) [Compound 3, trans-N-(5,8-hydroxy-3-methyl-1,2,3,4-tetrahydro-naphtalene-2yl)-N,N-dipropyl-amine, reference compound], the concentration for half-maximal inhibition (IC50) in test [1] (NAC peptide 500 μM, pH 7.4, 24 h at 37° C., read-out: α-synuclein Anti-aggregation (HPLC assay) IC50) amounted to 878 µM; in test [2], 60 µM.
Consider `CONC(C)Cc1ccc(O)c(O)c1` (centres unmarked) [Compound 1, N-(1-methyl-2-(3,4-dihydroxy-phenyl)-ethyl)-O-methyl-hydroxylamine], for which, in test [1], the IC50 was determined as 222 µM, the “potency in inhibiting the aggregation of α-synuclein as compared to compound (3)” value is “more potent” and the “anti-aggregating properties against α-synuclein” value is “significant anti-aggregating properties”. Moreover, in test [2], the “potency in inhibiting the aggregation of Aβ1-42 as compared to compound (3)” value is “more potent”, the half-inhibitory concentration (IC50) came to 15 µM and the “anti-aggregating properties against Aβ1-42” value is reported as “significant anti-aggregating properties”.
In the case of `CCCN(OCC)C1CCc2c(ccc(O)c2O)C1` (centres unmarked) [Compound 2, N-(5,6-dihydroxy-1,2,3,4-tetrahydro-naphthalene-2-yl)-N-propyl-O-ethyl-hydroxylamine], in test [1], the IC50 was 35 µM, the “potency in inhibiting the aggregation of α-synuclein as compared to compound (3)” value is “significantly more potent” and the “anti-aggregating properties against α-synuclein” value was “significant anti-aggregating properties”. Also, in test [2], the “potency in inhibiting the aggregation of Aβ1-42 as compared to compound (3)” value is on record as “significantly more potent”, the 50% inhibitory concentration (IC50) was determined as 6 µM and the “anti-aggregating properties against Aβ1-42” value was “significant anti-aggregating properties”.
